Measured values taken from ChEMBL document CHEMBL5723587, “Data for DCP probe BI-113823” (2024).

Columns and labels:
B2 bradykinin receptor = B2 bradykinin receptor (Homo sapiens, UniProt P30411); test: Radioligand binding assay (displacement of kallidin, human BDKRB2 ) at 10 µM ( Non-specific binding is estimated in the presence of 10 µM Des-Arg9- (Leu8)-Bradykinin. Membranes are filtered and washed, the filters are then counted to determine [3H]Kallidin[des-Arg10, Leu9] specifically bound.); parameters: compound concentration 10 uM
[1] = biological target: Sodium-dependent serotonin transporter (Homo sapiens) (UniProt P31645); test: Activity against 5HTTRANS/HU in the Eurofins SafetyScreen44 (BI) by Radioactive Assay; details: Compound concentration 10.0 uM
[2] = biological target: D(1A) dopamine receptor (Homo sapiens) (UniProt P21728); test: Activity against D1/HU in the Eurofins SafetyScreen44 (BI) by Radioactive Assay; details: Compound concentration 10.0 uM
[3] = biological target: P2Y purinoceptor 1 (Rattus norvegicus) (UniProt P49651); test: Activity against P2Y/RAT in the Eurofins SafetyScreen44 (BI) by Radioactive Assay; details: Compound concentration 10.0 uM
[4] = biological target: Sodium-dependent dopamine transporter (Homo sapiens) (UniProt Q01959); test: Inhibitor of DATRANS/H in the Eurofins SafetyScreen44 (BI) by Radioactive Assay; details: Compound concentration 10.0 uM
[5] = biological target: Alpha-1B adrenergic receptor (Rattus norvegicus) (UniProt P15823); test: Activity against ALPHA1B/R in the Eurofins SafetyScreen44 (BI) by Radioactive Assay; details: Compound concentration 10.0 uM
[6] = biological target: Kappa-type opioid receptor (Homo sapiens) (UniProt P41145); test: Activity against KAPPA/HU in the Eurofins SafetyScreen44 (BI) by Radioactive Assay; details: Compound concentration 10.0 uM
[7] = biological target: Neuropeptide Y receptor type 1 (Homo sapiens) (UniProt P25929); test: Activity against Y1/HU in the Eurofins SafetyScreen44 (BI) by Radioactive Assay; details: Compound concentration 10.0 uM
[8] = biological target: B1 bradykinin receptor (Homo sapiens) (UniProt P46663); test: Activity against B1/H in the Eurofins SafetyScreen44 (BI) by Radioactive Assay; details: Compound concentration 10.0 uM
[9] = biological target: Endothelin-1 receptor (Homo sapiens) (UniProt P25101); test: Activity against ETA/HU in the Eurofins SafetyScreen44 (BI) by Radioactive Assay; details: Compound concentration 10.0 uM
[10] = Activity against I2/CENTR/R in the Eurofins SafetyScreen44 (BI) by Radioactive Assay; details: Rattus norvegicus; Compound concentration 10.0 uM
[11] = biological target: P2X purinoceptor (Oryctolagus cuniculus) (UniProt G1U3D6); test: Activity against P2X/RB in the Eurofins SafetyScreen44 (BI) by Radioactive Assay; details: Compound concentration 10.0 uM
[12] = biological target: Glutamate receptor ionotropic, kainate 1 (Rattus norvegicus) (UniProt P22756); test: Activity against KAINATE/R in the Eurofins SafetyScreen44 (BI) by Radioactive Assay; details: Compound concentration 10.0 uM
[13] = biological target: Glutamate receptor ionotropic, NMDA 1 (Rattus norvegicus) (UniProt P35439); test: Inhibitor of NMDAGLSI/RA in the Eurofins SafetyScreen44 (BI) by Scintillation counting; details: Compound concentration 10.0 uM
[14] = biological target: Glutamate receptor ionotropic, NMDA 2A (Rattus norvegicus) (UniProt Q00959); test: Activity against NMDAPHSI/R in the Eurofins SafetyScreen44 (BI) by Radioactive Assay; details: Compound concentration 10.0 uM
[15] = biological target: Alpha-2A adrenergic receptor (Homo sapiens) (UniProt P08913); test: Activity against ALPHA2A/H in the Eurofins SafetyScreen44 (BI) by Radioactive Assay; details: Compound concentration 10.0 uM
[16] = biological target: Protein kinase C alpha type (Mus musculus) (UniProt P20444); test: Inhibitor of PHORBOLE/M in the Eurofins SafetyScreen44 (BI) by Radioactive Assay; details: Compound concentration 10.0 uM
[17] = biological target: Muscarinic acetylcholine receptor M1 (Homo sapiens) (UniProt P11229); test: Activity against M1/HU in the Eurofins SafetyScreen44 (BI) by Radioactive Assay; details: Compound concentration 10.0 uM
[18] = biological target: Muscarinic acetylcholine receptor M2 (Homo sapiens) (UniProt P08172); test: Activity against M2/HU in the Eurofins SafetyScreen44 (BI) by Radioactive Assay; details: Compound concentration 10.0 uM
[19] = biological target: D(3) dopamine receptor (Homo sapiens) (UniProt P35462); test: Activity against D3/HU in the Eurofins SafetyScreen44 (BI) by Radioactive Assay; details: Compound concentration 10.0 uM
[20] = biological target: Adenosine receptor A2a (Homo sapiens) (UniProt P29274); test: Activity against A2A/HU in the Eurofins SafetyScreen44 (BI); details: Compound concentration 10.0 uM
[21] = biological target: Cysteinyl leukotriene receptor 1 (Homo sapiens) (UniProt Q9Y271); test: Activity against CYSLT1_HS in the Eurofins SafetyScreen44 (BI) by Radioactive Assay; details: Compound concentration 10.0 uM
[22] = biological target: Melatonin receptor type 1A (Homo sapiens) (UniProt P48039); test: Activity against MT1/H in the Eurofins SafetyScreen44 (BI) by Radioactive Assay; details: Compound concentration 10.0 uM
[23] = biological target: Histamine H2 receptor (Homo sapiens) (UniProt P25021); test: Activity against H2/H in the Eurofins SafetyScreen44 (BI) by Radioactive Assay; details: Compound concentration 10.0 uM
[24] = biological target: Estrogen receptor (Homo sapiens) (UniProt P03372); test: Activity against ERALPHA/H in the Eurofins SafetyScreen44 (BI) by Radioactive Assay; details: Compound concentration 10.0 uM
[25] = biological target: Alpha-1D adrenergic receptor (Homo sapiens) (UniProt P25100); test: Activity against ALPHA1D/H in the Eurofins SafetyScreen44 (BI) by Others; details: Compound concentration 10.0 uM
[26] = biological target: Epidermal growth factor receptor (Homo sapiens) (UniProt P00533); test: Activity against EGF/HU in the Eurofins SafetyScreen44 (BI) by Radioactive Assay; details: Compound concentration 10.0 uM
[27] = biological target: Type-1 angiotensin II receptor (Homo sapiens) (UniProt P30556); test: Activity against AT1/HU in the Eurofins SafetyScreen44 (BI) by Radioligand Binding; details: Compound concentration 10.0 uM
[28] = biological target: Platelet-activating factor receptor (Homo sapiens) (UniProt P25105); test: Activity against PAF/H in the Eurofins SafetyScreen44 (BI) by Radioactive Assay; details: Compound concentration 10.0 uM
[29] = biological target: D(2) dopamine receptor (Homo sapiens) (UniProt P14416); test: Activity against D2S/HU in the Eurofins SafetyScreen44 (BI) by Radioligand Binding; details: Compound concentration 10.0 uM
[30] = biological target: Adenosine receptor A3 (Homo sapiens) (UniProt P0DMS8); test: Activity against A3/H in the Eurofins SafetyScreen44 (BI); details: Compound concentration 10.0 uM
[31] = biological target: Sigma non-opioid intracellular receptor 1 (Homo sapiens) (UniProt Q99720); test: Activity against SIGMA1/HU in the Eurofins SafetyScreen44 (BI) by Radioactive Assay; details: Compound concentration 10.0 uM
hERG (KCNH2) = hERG (KCNH2) (Homo sapiens, UniProt Q12809); test: Activity against K+/HERG in the Eurofins SafetyScreen44 (BI) by Radioactive Assay; details: compound concentration 10 uM, read-out: % Ctrl
[32] = biological target: Sigma intracellular receptor 2 (Rattus norvegicus) (UniProt Q5U3Y7); test: Activity against SIGMA2/R in the Eurofins SafetyScreen44 (BI) by Radioactive Assay; details: Compound concentration 10.0 uM
[33] = biological target: Gamma-aminobutyric acid receptor subunit alpha-1 (Rattus norvegicus) (UniProt P62813); test: Activity against GABAA MUSCIMOL CENT in the Eurofins SafetyScreen44 (BI) by Scintillation counting; details: Compound concentration 10.0 uM
Chain of Gamma-aminobutyric acid receptor subunit alpha-1 (Rattus norvegicus) (P62813 whole entry): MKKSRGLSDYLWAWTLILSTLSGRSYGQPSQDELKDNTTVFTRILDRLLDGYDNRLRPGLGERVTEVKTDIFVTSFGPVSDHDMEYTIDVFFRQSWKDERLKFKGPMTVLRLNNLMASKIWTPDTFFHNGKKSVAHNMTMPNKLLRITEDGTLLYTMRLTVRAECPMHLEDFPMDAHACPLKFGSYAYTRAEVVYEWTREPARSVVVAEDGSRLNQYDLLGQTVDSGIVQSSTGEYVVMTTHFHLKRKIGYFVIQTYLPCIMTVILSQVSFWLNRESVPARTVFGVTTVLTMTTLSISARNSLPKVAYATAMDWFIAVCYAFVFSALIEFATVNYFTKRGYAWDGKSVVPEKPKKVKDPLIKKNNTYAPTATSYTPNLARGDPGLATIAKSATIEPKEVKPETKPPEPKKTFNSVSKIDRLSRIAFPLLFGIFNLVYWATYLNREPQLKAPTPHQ

Chain of Alpha-1B adrenergic receptor (Rattus norvegicus) (P15823 whole entry, looked up): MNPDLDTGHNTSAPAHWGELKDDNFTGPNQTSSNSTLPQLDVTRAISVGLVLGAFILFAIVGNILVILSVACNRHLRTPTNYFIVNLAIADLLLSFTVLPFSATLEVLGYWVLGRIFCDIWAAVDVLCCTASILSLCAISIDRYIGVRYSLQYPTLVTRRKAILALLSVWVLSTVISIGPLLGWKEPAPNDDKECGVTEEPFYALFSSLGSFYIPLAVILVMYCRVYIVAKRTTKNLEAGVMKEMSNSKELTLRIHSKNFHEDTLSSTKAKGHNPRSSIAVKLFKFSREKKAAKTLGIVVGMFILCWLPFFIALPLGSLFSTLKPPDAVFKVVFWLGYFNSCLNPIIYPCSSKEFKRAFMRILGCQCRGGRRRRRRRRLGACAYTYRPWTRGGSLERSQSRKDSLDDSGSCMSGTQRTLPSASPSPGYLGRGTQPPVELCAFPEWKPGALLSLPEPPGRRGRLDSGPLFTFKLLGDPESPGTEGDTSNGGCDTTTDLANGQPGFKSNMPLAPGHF
Chain of P2X purinoceptor (Oryctolagus cuniculus) (G1U3D6 as listed by the source): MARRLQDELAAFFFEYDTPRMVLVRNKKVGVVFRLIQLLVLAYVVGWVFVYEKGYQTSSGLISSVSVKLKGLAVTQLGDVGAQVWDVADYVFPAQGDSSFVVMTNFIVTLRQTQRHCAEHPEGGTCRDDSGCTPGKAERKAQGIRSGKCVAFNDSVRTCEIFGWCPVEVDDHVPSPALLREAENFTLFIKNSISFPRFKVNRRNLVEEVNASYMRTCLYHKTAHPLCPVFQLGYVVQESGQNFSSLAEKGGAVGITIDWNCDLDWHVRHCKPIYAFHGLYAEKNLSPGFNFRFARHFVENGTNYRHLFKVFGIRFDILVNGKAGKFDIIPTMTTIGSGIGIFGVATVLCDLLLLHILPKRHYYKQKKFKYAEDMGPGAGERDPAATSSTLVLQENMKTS
Chain of Histamine H2 receptor (Homo sapiens) (P25021 whole entry): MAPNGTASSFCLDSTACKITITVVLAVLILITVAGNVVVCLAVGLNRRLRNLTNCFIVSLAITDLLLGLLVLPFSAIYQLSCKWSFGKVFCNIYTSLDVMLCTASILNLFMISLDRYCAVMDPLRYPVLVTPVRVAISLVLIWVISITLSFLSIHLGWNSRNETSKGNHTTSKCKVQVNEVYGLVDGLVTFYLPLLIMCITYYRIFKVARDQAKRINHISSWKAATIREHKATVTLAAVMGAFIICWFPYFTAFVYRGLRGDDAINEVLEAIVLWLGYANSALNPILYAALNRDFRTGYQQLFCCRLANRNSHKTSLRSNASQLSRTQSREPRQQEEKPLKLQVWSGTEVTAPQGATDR
Chain of Alpha-2A adrenergic receptor (Homo sapiens) (P08913 whole entry): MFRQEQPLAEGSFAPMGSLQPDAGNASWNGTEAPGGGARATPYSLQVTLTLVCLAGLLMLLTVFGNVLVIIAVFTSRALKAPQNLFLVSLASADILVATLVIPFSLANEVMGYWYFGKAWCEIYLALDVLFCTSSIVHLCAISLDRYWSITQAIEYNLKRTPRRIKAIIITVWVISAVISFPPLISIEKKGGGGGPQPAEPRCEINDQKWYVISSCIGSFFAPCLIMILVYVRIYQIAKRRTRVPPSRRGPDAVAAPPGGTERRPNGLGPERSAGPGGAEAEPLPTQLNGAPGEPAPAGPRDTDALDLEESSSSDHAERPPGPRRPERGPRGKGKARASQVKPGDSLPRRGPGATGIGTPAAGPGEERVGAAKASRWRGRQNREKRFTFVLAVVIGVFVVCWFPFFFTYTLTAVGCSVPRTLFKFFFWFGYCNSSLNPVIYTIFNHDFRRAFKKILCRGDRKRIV
Chain of Cysteinyl leukotriene receptor 1 (Homo sapiens) (Q9Y271 whole entry): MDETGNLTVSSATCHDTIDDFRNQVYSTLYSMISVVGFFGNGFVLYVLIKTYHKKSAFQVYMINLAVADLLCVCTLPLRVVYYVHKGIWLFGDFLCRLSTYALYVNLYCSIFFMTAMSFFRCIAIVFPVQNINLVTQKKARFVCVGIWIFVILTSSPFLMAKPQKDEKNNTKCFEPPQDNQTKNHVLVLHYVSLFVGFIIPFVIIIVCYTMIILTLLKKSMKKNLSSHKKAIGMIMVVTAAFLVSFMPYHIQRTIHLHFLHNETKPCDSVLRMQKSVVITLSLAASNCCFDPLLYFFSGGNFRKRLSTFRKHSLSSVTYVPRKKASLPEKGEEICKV
Chain of Sodium-dependent serotonin transporter (Homo sapiens) (P31645 whole entry, looked up): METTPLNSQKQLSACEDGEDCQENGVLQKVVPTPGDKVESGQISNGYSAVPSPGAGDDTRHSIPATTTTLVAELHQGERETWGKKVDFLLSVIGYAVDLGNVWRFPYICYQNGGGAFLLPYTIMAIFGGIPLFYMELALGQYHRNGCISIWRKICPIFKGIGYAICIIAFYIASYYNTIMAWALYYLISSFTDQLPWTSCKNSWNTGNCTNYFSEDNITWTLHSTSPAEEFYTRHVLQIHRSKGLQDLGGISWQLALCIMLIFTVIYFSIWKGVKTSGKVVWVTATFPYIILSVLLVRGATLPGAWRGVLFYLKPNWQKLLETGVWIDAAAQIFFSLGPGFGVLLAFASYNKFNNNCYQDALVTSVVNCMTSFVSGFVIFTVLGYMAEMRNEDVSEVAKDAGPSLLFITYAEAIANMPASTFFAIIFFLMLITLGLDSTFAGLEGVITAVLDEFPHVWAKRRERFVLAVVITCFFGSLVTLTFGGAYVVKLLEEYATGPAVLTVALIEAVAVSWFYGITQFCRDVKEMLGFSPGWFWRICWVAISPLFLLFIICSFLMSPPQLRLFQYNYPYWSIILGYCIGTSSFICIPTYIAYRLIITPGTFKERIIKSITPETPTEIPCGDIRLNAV
Chain of Neuropeptide Y receptor type 1 (Homo sapiens) (P25929 whole entry): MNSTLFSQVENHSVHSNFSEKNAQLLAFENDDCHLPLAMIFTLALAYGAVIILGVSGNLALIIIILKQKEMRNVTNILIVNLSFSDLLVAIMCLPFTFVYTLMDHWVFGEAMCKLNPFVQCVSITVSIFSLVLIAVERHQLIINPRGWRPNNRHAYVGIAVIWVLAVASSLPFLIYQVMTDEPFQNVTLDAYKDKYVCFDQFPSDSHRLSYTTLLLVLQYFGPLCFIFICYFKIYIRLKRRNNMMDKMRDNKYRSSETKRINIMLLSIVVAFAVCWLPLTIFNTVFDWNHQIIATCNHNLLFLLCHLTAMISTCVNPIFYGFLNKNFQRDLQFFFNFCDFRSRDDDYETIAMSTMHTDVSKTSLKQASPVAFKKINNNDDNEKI
Chain of D(2) dopamine receptor (Homo sapiens) (P14416 whole entry): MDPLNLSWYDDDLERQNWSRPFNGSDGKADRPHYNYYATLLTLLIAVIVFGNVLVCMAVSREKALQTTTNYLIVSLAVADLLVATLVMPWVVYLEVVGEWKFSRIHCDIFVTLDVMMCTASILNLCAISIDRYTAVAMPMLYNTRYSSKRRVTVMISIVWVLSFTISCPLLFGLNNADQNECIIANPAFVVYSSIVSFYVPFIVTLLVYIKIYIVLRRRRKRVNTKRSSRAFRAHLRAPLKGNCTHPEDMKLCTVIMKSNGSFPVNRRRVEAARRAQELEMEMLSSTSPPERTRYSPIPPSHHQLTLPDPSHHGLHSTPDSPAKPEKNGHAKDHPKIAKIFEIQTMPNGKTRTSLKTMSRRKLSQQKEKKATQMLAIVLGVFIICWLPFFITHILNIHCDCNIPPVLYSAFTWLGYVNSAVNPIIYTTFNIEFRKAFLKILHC
Chain of B1 bradykinin receptor (Homo sapiens) (P46663 whole entry): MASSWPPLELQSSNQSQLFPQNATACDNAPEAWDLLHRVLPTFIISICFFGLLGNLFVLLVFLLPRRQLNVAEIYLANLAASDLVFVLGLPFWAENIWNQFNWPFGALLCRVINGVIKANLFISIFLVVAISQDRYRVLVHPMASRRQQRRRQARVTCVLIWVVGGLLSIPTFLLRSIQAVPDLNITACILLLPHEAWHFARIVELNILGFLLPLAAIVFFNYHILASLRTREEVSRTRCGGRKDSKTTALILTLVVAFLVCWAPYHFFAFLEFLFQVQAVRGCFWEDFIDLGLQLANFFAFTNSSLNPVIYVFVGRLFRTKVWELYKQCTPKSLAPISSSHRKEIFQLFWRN
Chain of Endothelin-1 receptor (Homo sapiens) (P25101 whole entry): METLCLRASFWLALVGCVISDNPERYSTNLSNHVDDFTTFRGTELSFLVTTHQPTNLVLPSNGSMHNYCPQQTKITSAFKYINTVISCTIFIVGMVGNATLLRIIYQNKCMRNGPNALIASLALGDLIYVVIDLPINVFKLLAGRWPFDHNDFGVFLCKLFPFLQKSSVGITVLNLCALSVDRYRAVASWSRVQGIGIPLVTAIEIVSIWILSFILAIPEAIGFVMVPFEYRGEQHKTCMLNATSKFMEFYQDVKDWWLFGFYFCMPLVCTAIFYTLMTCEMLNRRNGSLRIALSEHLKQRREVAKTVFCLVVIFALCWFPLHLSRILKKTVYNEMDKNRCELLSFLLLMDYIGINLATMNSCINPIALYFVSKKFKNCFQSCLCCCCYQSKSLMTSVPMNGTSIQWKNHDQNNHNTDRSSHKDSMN
Chain of Sigma intracellular receptor 2 (Rattus norvegicus) (Q5U3Y7 whole entry): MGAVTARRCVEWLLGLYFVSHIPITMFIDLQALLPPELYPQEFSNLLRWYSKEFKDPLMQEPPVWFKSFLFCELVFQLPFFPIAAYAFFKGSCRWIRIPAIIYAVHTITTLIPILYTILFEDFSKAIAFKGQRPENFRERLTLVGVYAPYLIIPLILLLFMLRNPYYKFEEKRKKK

Compound: COc1cc(C)c(S(=O)(=O)N(C)CCOCC(=O)N(C)[C@H]2CCC[C@@H](N3CCN(C)CC3)C2)c(C)c1
- Ki (B2 bradykinin receptor): > 10 µM (not active)
- residual activity [1]: 108%
- residual activity [2]: 97%
- residual activity [3]: 108%
- residual activity [4]: 103%
- residual activity [5]: 96%
- residual activity [6]: 99%
- residual activity [7]: 109%
- residual activity [8]: 22%
- residual activity [9]: 96%
- residual activity [10]: 60%
- residual activity [11]: 100%
- residual activity [12]: 93%
- residual activity [13]: 93%
- residual activity [14]: 111%
- residual activity [15]: 85%
- residual activity [16]: 102%
- residual activity [17]: 88%
- residual activity [18]: 61%
- residual activity [19]: 86%
- residual activity [20]: 97%
- residual activity [21]: 95%
- residual activity [22]: 97%
- residual activity [23]: 93%
- residual activity [24]: 104%
- residual activity [25]: 96%
- residual activity [26]: 125%
- residual activity [27]: 115%
- residual activity [28]: 87%
- residual activity [29]: 105%
- residual activity [30]: 101%
- residual activity [31]: 30%
- activity at 10 µM (hERG (KCNH2)): 70% (not active)
- residual activity [32]: 45%
- residual activity [33]: 101%
